Results from patent US9975888B2, “Aryl linked imidazole and triazole derivatives and methods of use thereof for improving the pharmacokinetics of a drug” (MERCK SHARP & DOHME CORP., priority 2013, dated 2018).

How the values were obtained:
Format in all cases: biochemical
CYP3A4 [1] = biological target: T1, CYP3A4 (Homo sapiens, UniProt P08684); experiment: Cocktail assay for CYPs, midazolam 1′-hydroxylation (CYP3A4), human liver microsomes; set-up: 0.1 mg/mL protein human liver microsomes (BD Gentest); tissue BD Gentest; host or cells: human liver microsomes; details: 2 μM midazolam, 0.1 mg/mL human liver microsomes, 10 min at 37° C.; read-out: CYP IC50 (nM) 3A4 (MDZ)
Description: (§1) Determination of IC50 in a Cocktail Assay for CYPs 1A2, 2C9, 2C19, 2D6 and 3A4:
(§2) This assay was performed in a standard 96-well plate design. IC50 values were calculated from the percent inhibition observed for each test compound at 6 concentrations (for example, 0.0032, 0.016, 0.08, 0.4, 2 and 10 μM). The incubation substrate mix contains 10 μM phenacetin (1A2), 5 μM diclofenac (2C9), 30 μM mephenytoin (2C19), 5 μM dextromethorphan (2D6) and 2 μM midazolam (3A4), 0.1 mg/mL protein human liver microsomes (BD Gentest), 1 mM NAPDH, 3.3 mM MgCl2 and 100 mM potassium phosphate buffer (pH 7.4). The production of the metabolite of each probe substrate was determined after incubation for 10 min at 37° C. Quantitation of the metabolite peak area ratio against an internal standard (tolbutamide) was determined by LC/MS/MS analysis following acetonitrile treatment of the incubations.
(§3) Samples were analyzed in the MRM mode with a SCIEX API-4000 mass spectrometer (Applied Biosystems, Foster City, Calif.), with a Shimadzu LC-20 AD pump (Shimadzu corporation, Kyoto, JP) and a CTC PAL autosampler (Agilent Technologies, Switzerland). A Phenomenex, Luna, 5 nm, 100 A, 2.00×30 mm HPLC column was used for the separation. The mobile phases were: (A) 0.1% formic acid in water and (B) 0.1% formic acid in acetonitrile. The binary gradient was as follows.
(§4) The peak area ratio of the analyte to the internal standard was used to quantify the metabolite. The values of peak area ratios in the presence of test compound were compared to those of maximum or minimum controls and were expressed as % inhibition by interpolating between the maximum and minimum peak area ratios. Incubations with no inhibitor were defined as the maxima. The following equation was used to calculate the % inhibition: [1−[(X−Low control)/(High control−Low control)]]*100 For the IC50 calculation, SigmaPlot was used to plot the mean % inhibition versus the test compound concentrations and for non-linear regression analysis of the data. Depending on the range of data points defining the inhibition curve, the data may have been fit to the 4-parameter logistic equation.
Target sequence in this assay (P08684 whole entry): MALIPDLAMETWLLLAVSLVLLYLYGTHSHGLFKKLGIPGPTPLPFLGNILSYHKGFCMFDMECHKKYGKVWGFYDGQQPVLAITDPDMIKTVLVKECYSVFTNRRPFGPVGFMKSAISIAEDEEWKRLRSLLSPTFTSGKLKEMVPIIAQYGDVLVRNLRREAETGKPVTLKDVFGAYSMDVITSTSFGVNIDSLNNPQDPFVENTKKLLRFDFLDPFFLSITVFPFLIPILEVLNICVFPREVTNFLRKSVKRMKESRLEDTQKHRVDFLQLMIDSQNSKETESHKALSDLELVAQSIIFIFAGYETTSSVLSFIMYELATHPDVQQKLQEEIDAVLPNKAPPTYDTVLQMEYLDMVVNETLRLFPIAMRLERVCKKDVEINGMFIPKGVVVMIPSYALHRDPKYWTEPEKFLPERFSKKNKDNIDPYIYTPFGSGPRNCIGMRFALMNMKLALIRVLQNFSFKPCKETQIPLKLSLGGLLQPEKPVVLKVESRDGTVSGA

CYP2D6 = biological target: T2, CYP2D6 (Homo sapiens, UniProt P10635); experiment: Cocktail assay for CYPs, dextromethorphan O-demethylation (CYP2D6), human liver microsomes; details: 5 μM dextromethorphan, 0.1 mg/mL human liver microsomes, 10 min at 37° C.; read-out: CYP IC50 (nM) 2D6
T2 construct: 0.1 mg/mL protein human liver microsomes (BD Gentest); tissue BD Gentest; host or cells: human liver microsomes
T2 sequence (P10635 whole entry): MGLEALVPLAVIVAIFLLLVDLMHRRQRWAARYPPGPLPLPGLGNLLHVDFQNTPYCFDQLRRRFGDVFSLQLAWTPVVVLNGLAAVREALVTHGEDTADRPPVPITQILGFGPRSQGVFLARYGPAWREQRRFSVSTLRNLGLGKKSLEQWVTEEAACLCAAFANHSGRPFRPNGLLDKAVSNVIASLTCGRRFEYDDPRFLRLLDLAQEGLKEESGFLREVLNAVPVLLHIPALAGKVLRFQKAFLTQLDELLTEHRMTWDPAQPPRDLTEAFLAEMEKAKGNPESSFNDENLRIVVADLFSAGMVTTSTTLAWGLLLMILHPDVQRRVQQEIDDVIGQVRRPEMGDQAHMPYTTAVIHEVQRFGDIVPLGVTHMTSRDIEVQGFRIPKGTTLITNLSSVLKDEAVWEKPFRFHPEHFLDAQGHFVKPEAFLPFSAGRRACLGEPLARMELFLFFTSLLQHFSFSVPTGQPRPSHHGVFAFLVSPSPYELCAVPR
Description: as §1, §2, §3, §4

CYP1A2 = biological target: T3, CYP1A2 (Homo sapiens, UniProt P05177); experiment: Cocktail assay for CYPs, phenacetin O-deethylation (CYP1A2), human liver microsomes; details: 10 μM phenacetin, 0.1 mg/mL human liver microsomes, 10 min at 37° C.; read-out: CYP IC50 (nM) 1A2
T3 construct: 0.1 mg/mL protein human liver microsomes (BD Gentest); tissue BD Gentest; host or cells: human liver microsomes
T3 sequence (P05177 1-516): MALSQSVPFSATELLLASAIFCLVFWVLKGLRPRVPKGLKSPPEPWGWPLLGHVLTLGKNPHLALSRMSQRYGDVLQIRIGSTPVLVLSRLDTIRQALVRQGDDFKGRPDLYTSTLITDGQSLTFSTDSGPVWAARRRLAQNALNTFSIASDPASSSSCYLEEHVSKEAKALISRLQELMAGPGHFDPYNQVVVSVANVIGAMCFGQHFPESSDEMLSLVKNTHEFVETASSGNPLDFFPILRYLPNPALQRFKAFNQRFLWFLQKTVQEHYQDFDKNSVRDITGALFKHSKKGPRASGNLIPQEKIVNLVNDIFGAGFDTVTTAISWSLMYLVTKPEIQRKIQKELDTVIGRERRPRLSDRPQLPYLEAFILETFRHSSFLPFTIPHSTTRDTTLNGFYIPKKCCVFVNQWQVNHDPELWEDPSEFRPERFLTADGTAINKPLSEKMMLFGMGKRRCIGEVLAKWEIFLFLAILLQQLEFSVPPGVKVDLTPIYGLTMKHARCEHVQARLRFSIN
Description: as §1, §2, §3, §4

CYP3A4 [2] = biological target: T1, CYP3A4; experiment: IC50 vs CYP3A by inhibition of lopinavir metabolism in human liver microsomes; set-up: 0.01 mg/mL protein human liver microsomes (BD Gentest); tissue BD Gentest; host or cells: human liver microsomes; details: 1.5 μM lopinavir, 0.01 mg/mL human liver microsomes, 8 min at 37° C.; read-out: CYP IC50 (nM) 3A4 (LPV)
Description: Determination of IC50 vs CYP3A by Measurement of Inhibition of Lopinavir Metabolism
This assay was performed in a standard 96-well plate design. IC50 values were calculated from the percent inhibition observed for each test compound at 6 concentrations (for example, 0.098, 0.391, 1.56, 6.25, 25 and 100 nM). The incubation substrate mix contains 1.5 μM lopinavir, 0.01 mg/mL protein human liver microsomes (BD Gentest), 1 mM NAPDH, 3.3 mM MgCl2 and 100 mM potassium phosphate buffer (pH 7.4). The production of the sum of three hydroxylated metabolites (M2: 6-hydroxy lopinavir, M3: 4-hydroxy lopinavir, M4: 4-hydroxy lopinavir (epimer of M3), Kumar et al., 1999) was determined after incubation for 8 min at 37° C. Quantitation of the metabolite peak area ratio against an internal standard (tolbutamide) was determined by LC/MS/MS analysis following acetonitrile treatment of the incubations.
as §3, with “μm,” for “nm,”
Target sequence in this assay (P08684 2-503): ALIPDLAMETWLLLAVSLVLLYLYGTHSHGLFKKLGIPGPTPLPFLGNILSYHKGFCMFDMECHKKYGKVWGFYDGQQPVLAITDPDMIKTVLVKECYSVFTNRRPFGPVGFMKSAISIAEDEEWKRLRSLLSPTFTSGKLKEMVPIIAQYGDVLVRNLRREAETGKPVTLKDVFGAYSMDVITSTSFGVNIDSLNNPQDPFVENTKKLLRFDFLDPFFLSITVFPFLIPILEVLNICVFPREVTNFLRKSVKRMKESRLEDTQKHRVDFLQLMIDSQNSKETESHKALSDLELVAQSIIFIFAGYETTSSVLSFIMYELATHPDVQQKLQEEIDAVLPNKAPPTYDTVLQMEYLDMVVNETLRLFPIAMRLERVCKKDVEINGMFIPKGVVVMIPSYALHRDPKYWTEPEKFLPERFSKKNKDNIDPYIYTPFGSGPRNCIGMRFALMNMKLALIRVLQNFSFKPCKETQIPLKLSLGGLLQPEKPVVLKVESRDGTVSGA
The peak area ratio of the analyte to the internal standard was used to quantify the metabolite. The values of peak area ratios in the presence of test compound were compared to those of maximum or minimum controls and were expressed as % inhibition by interpolating between the maximum and minimum peak area ratios. Incubations with no inhibitor were defined as the maxima and with 5 μM ketoconazole were defined as the minima.
The following equation was used to calculate the % inhibition: [1−[(X−Low control)/(High control−Low control)]]*100
For the IC50 calculation, SigmaPlot was used to plot the mean % inhibition versus the test compound concentrations and for non-linear regression analysis of the data. Depending on the range of data points defining the inhibition curve, the data may have been fit to the 4-parameter logistic equation.

CYP2C19 = biological target: T4, CYP2C19 (Homo sapiens, UniProt P33261); experiment: Cocktail assay for CYPs, mephenytoin 4′-hydroxylation (CYP2C19), human liver microsomes; details: 30 μM mephenytoin, 0.1 mg/mL human liver microsomes, 10 min at 37° C.; read-out: CYP IC50 (nM) 2C19
T4 construct: 0.1 mg/mL protein human liver microsomes (BD Gentest); tissue BD Gentest; host or cells: human liver microsomes
T4 sequence (P33261 whole entry): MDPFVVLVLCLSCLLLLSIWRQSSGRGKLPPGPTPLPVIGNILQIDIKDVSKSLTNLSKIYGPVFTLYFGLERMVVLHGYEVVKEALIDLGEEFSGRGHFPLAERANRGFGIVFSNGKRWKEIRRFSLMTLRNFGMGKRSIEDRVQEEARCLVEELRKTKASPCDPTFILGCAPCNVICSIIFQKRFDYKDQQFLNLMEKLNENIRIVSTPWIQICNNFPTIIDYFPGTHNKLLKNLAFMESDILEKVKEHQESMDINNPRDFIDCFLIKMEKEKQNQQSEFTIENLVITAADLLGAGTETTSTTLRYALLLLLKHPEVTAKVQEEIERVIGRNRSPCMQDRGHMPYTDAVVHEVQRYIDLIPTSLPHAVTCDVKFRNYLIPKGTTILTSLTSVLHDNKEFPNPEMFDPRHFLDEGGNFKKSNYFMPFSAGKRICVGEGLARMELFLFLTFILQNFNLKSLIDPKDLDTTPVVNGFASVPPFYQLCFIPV
Description: as §1
as §2, with “IC50 values were calculated from the percent inhibition observed for each test compound at 6 concentrations (for example, 0.0032, 0.016, 0.08, 0.4, 2 and 10 μM).” left out
as §3, §4

CYP2C9 = biological target: T5, CYP2C9 (Homo sapiens, UniProt P11712); experiment: Cocktail assay for CYPs, diclofenac 4′-hydroxylation (CYP2C9), human liver microsomes; details: 5 μM diclofenac, 0.1 mg/mL human liver microsomes, 10 min at 37° C.; read-out: CYP IC50 (nM) 2C9
T5 construct: 0.1 mg/mL protein human liver microsomes (BD Gentest); tissue BD Gentest; host or cells: human liver microsomes
T5 sequence (P11712 whole entry): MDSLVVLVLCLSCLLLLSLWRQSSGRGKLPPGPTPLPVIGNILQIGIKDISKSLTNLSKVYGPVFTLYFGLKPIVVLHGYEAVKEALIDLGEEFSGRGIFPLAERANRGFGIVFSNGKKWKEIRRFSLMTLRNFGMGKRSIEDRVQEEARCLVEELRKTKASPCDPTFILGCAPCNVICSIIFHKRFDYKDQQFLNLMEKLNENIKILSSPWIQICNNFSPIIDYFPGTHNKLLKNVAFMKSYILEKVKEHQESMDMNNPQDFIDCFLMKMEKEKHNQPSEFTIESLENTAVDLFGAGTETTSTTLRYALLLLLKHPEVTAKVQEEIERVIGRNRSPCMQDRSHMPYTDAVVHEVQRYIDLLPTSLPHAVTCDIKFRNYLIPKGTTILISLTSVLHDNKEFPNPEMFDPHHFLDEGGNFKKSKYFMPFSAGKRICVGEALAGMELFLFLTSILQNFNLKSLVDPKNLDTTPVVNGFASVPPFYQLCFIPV
Description: as §1
as §2, with “IC50 values were calculated from the percent inhibition observed for each test compound at 6 concentrations (for example, 0.0032, 0.016, 0.08, 0.4, 2 and 10 μM).” left out
as §3, §4

| SMILES | IC50 (CYP3A4 [1]) [nM] | IC50 (CYP2D6) [nM] | IC50 (CYP1A2) [nM] | IC50 (CYP3A4 [2]) [nM] | IC50 (CYP2C19) [nM] | IC50 (CYP2C9) [nM] |
| --- | --- | --- | --- | --- | --- | --- |
| CC(=O)Nc1ncc(S(=O)(=O)NCc2ccc(-c3cncn3CCc3ccc(F)cc3)cc2)s1 [Compound 12, N-(5-(N-(4-(1-(4-fluorophenethyl)-1H-imidazol-5-yl)benzyl)sulfamoyl)thiazol-2-yl)acetamide] | 8.7 | 675 | 2400 | 5 | 300 | 49 |
| CC(=O)Nc1ncc(S(=O)(=O)NCc2cccc(-c3cncn3CCc3ccc(F)cc3)c2)s1 [Compound 13, N-(5-(N-(3-(1-(4-fluorophenethyl)-1H-imidazol-5-yl)benzyl)sulfamoyl)thiazol-2-yl)acetamide] | 5.9 | 348 | 99 | 5.3 | 357 | 65 |
| C[C@H](c1ccc(F)cc1)n1cncc1-c1ccc2c(c1)CN(S(=O)(=O)c1cnc(N)s1)CC2 [Compound 2, (R)-5-((7-(1-(1-(4-fluorophenyl)ethyl)-1H-imidazol-5-yl)-3,4-dihydroisoquinolin-2(1H)-yl)sulfonyl)thiazol-2-amine] | 39 | 288 | 2610 | 17 | 121 | 505 |
| COCCn1cncc1-c1ccccc1C1CCCN1S(=O)(=O)c1cnc(NC(C)=O)s1 (stereo not drawn) [Compound 20, N-(5-((2-(2-(1-(2-methoxyethyl)-1H-imidazol-5-yl)phenyl)pyrrolidin-1-yl)sulfonyl)thiazol-2-yl)acetamide] | 38.5 | > 10000 | > 10000 | ≥ 100 | > 10000 | > 10000 |
| CN1CCN(c2ncc(S(=O)(=O)N3Cc4cccc(-c5cncn5CCc5ccc(F)cc5)c4C3)s2)CC1 [Compound 16, 5-((4-(1-(4-fluorophenethyl)-1H-imidazol-5-yl)isoindolin-2-yl)sulfonyl)-2-(4-methylpiperazin-1-yl)thiazole] | 13.2 | 360 | 3100 | 9.5 | 1260 | 486 |
| CC(=O)Nc1ncc(S(=O)(=O)N2CCCC2c2ccc(-c3cncn3CCc3ccc(F)cc3)cc2)s1 (stereo not drawn) [Compound 8, N-(5-((2-(4-(1-(4-fluorophenethyl)-1H-imidazol-5-yl)phenyl)pyrrolidin-1-yl)sulfonyl)thiazol-2-yl)acetamide] | 4.4 | 1200 | 8560 | 1.9 | 281 | 565 |
| CN1CCN(c2ncc(S(=O)(=O)N3CCc4c(-c5cncn5CCc5ccc(F)cc5)ccnc4C3)s2)CC1 [Compound 66, 5-((4-(1-(4-fluorophenethyl)-1H-imidazol-5-yl)-5,6-dihydro-1,7-naphthyridin-7(8H)-yl)sulfonyl)-2-(4-methylpiperazin-1-yl)thiazole] | 22.4 | > 10000 | 2680 | 23.8 | > 10000 | > 10000 |

Other lines, results leading:

| IC50 (CYP3A4 [1]) [nM] | IC50 (CYP2D6) [nM] | IC50 (CYP1A2) [nM] | IC50 (CYP3A4 [2]) [nM] | IC50 (CYP2C19) [nM] | IC50 (CYP2C9) [nM] | SMILES |
| --- | --- | --- | --- | --- | --- | --- |
| 41.2 | 3880 | > 10000 | > 100 | 4800 | 9840 | O=C(c1cccnc1)N1CCCC1c1cccc(-c2cncn2CCc2ccc(F)cc2)c1 (single isomer, unassigned) [Compound 48b, (R or S)-(2-(3-(1-(4-fluorophenethyl)-1H-imidazol-5-yl)phenyl)pyrrolidin-1-yl) (pyridin-3-yl) methanone] |
| 4.52 | 2230 | 190 | 1.4 | 393 | 209 | O=S(=O)(c1ccc(N2CCC(O)CC2)nc1)N1CCCC1c1cccc(-c2cncn2CCc2ccc(F)cc2)c1 (single isomer, unassigned) [Compound 57b, (R or S)-1-(5-((2-(3-(1-(4-fluorophenethyl)-1H-imidazol-5-yl)phenyl)pyrrolidin-1-yl)sulfonyl)pyridin-2-yl) piperidin-4-ol] |
| 8.1 | 4600 | > 10000 | 4.2 | > 10000 | 8600 | O=S(=O)(c1ccc(N2CCN(CCO)CC2)nc1)N1CCCC1c1ccccc1-c1cncn1CCc1ccc(F)cc1 (single isomer, unassigned) [Compound 35a, (R or S)-2-(4-(5-((2-(2-(1-(4-fluorophenethyl)-1H-imidazol-5-yl)phenyl)pyrrolidin-1-yl)sulfonyl)pyridin-2-yl)piperazin-1-yl) ethanol] |
